The text below walks through data of patent US9066922B2, “Pharmaceutical composition for the treatment or prevention of diseases involving obesity, diabetes, metabolic syndrome, neuro-degenerative diseases and mitochondria dysfunction diseases” (MD BIOALPHA CO., LTD., priority 2005, dated 2015).

One data set relates to AMPK. The experiment in a line: Determination of AMPK activation in C2C12 myoblast cells (SAMS peptide, [γ-32P]ATP). Format: cell-based. As to conditions: differentiated C2C12 myoblast cells, 5 μg/ml, compared with control (DMSO 0.5% = 1). On the procedure:
Myoblast cells, C2C12, were cultured in DMEM containing 10% bovine calf serum. When a cell density reached a range of about 85% to 90%, the culture medium was replaced with a medium containing 1% bovine calf serum to induce differentiation of cells. The thus-differentiated myoblast cells were treated with samples synthesized in Examples 1 through 29 at a concentration of 5 μg/ml, and compared with a control group. Enzymatic activity of AMPK was determined as follows. Firstly, C2C12 cells were lysed to obtain protein extracts and then ammonium sulfate was added to a final concentration of 30%, thereby precipitating proteins. Protein precipitates were dissolved in a buffer (62.5 mM Hepes, pH 7.2, 62.5 mM NaCl, 62.5 mM NaF, 1.25 mM Na pyrophosphate, 1.25 mM EDTA, 1 mM DTT, 0.1 mM PMSF, and 200 μM AMP). Thereafter, 200 μM SAMS peptide (HMRSAMSGLHLVKRR: the underlined serine residue is a phosphorylation site, as an AMPK phosphorylation site of acetyl-CoA carboxylase) and [γ-32P]ATP were added thereto and reactants were reacted for 10 minutes at 30° C. This was followed by spotting of the resulting reaction solution on p81 phosphocellulose paper. The p81 paper was washed with a 3% phosphoric acid solution and radioactivity thereof was measured. For each reaction condition, reactions involving no SAMS peptide were also conducted and basic values were subtracted from the thus-observed values.

The test system of data set [1] is Sprague-Dawley rats. Nature of the data set: Acute toxicity test, oral administration. The data set is classed as in vivo. As to conditions: oral, 50, 100 and 200 mg/kg, observed for 2 weeks, vs control group.
The subject of data set [2] is C57BL/6JL Lep ob/Lep ob mice. Nature of the data set: Weight loss effects in obese mice (ob/ob): body weight. Format: in vivo. Particulars: 100 mg/kg for 26 days. The text has this:
(§1) 10-week-old C57BL/6JL Lep ob/Lep ob male mice having obesity characteristics and predisposition were purchased from Daehan Biolink Co., Ltd. (Chungchongbuk-do, Korea). Animals were raised in a breeding room maintained at a temperature of 23 C, 55% humidity, illumination of 300 to 500 lux, a 12-h light/dark (L/D) cycle, and ventilation of 10 to 18 times/hr. Animals were fed ad libitum pellets of Purina Rodent Laboratory Chow 5001 (purchased from Purina Mills Inc., St. Louis, Mo., USA) as a solid feed for experimental animals and tap water as drinking water. Mice were allowed to acclimate to new environment of the breeding room for two weeks and were then administered some pyrano-o-naphthoquinone and furano-o-naphthoquinone derivatives synthesized according to the present invention at doses of 100 mg/kg for 26 days. Observation was made on changes in body weight, blood glucose and dietary intake, with respect to a time course of administration. After administration was complete, Computed Tomography (CT) was performed to confirm changes in adipose tissue distribution of animals, changes in fat distribution of tissues in various organs, changes in sizes of adipocytes, and changes in glucose, lipid and enzyme levels in blood and liver.

In data set [3] the test system is C57BL/6JL Lep ob/Lep ob mice. Nature of the data set: Blood lipid, glucose and enzyme levels in obese mice (ob/ob). Format: in vivo. Set-up: unit not given here. Particulars: 100 mg/kg for 26 days.
Text: as §1

Data set [4] relates to Sprague-Dawley rats. The experiment in a line: Acute toxicity test, peritoneal administration. Particulars: peritoneal, 50, 100 and 200 mg/kg, observed for 2 weeks, vs control group. The data set is classed as in vivo.

For the compound `CC1(c2ccccc2)CCC2=C(O1)c1ccccc1C(=O)C2=O` (stereo not shown) [Compound 26], the AMPK fold with AMPK is 2.2 fold. In the data set on Sprague-Dawley rats [1], the visually observable symptoms result is “no visually observable symptoms with exception of weight loss”. In addition, the “Final BW” value in data set [2] turned out to be 42.3 g. Also, the change in vivo at 100 mg/kg in data set [2] (Mus musculus, 624 h, read-out: Increase in BW) was -25.5%. In data set [3], this compound displayed a Cholesterol of 128, a GOT of 40, a GPT of 33 and a Glucose of 131. This compound had a Triglyceride in data set [3] of 137. The visually observable symptoms entry with Sprague-Dawley rats [4] is “no visually observable symptoms with exception of weight loss”.
